# From PMC11436757, “BRCA2 stabilises RAD51 and DMC1 nucleoprotein filaments through a conserved interaction mode” (Nature Communications, 2024)
# “Also recorded” adds a separate entry of the source.
# T1: DMC1 ΔN (Homo sapiens, UniProt Q14565)
# T1 construct: DMC1 ΔN (83-340) were cloned into pHAT4; His6 (TEV-cleavable) (N, cleaved yes); made in house; host or cells: E. coli BL21 (DE3)
# T1 sequence (Q14565 83-340): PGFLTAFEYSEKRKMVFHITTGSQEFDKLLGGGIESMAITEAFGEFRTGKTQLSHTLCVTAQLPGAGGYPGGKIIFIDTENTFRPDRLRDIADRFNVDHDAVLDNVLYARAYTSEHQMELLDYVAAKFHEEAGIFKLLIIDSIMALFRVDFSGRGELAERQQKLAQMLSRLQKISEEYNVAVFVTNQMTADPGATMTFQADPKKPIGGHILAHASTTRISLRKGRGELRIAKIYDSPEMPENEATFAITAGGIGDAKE
# B1: DMC1 ΔN (amino-acids 83-340), purified (domain or fragment, human, UniProt Q14565 83-340, looked up)
# chain: T1 sequence (Q14565 83-340)
# modifications: amine reactive fluorescent dye (Monolith Protein Labelling Kit BLUE-NHS) in the MST only
# notes: human DMC1 with its N-terminal domain deleted, amino acids 83-340; Octameric ring in the crystal and in solution; also called DMC1 core; structural core of human DMC1; source: E. coli BL21 (DE3), purified (Ni-NTA, HiTrap Q, TEV cleavage, HiTrap Q, SEC)
# B2: 100-nt poly(dT) (ssDNA)
# DNA: TTTTTTTTTTTTTTTTTTTTTTTTTTTTTTTTTTTTTTTTTTTTTTTTTTTTTTTTTTTTTTTTTTTTTTTTTTTTTTTTTTTTTTTTTTTTTTTTTTTT
# Key:
# DMC1-ssDNA filaments [1] = assay: EMSA, stimulation of DMC1-ssDNA filament formation (TAE pH 7.5); assay type: biochemical, human
# From the text: (§1) What is the function of the BRCA2 Ex14-DMC1 interaction? We used electrophoretic mobility shift assays (EMSAs) to determine the impact of BRCA2-binding on DMC1 nucleoprotein filaments. We used two different conditions for nucleoprotein filament assembly. Firstly, a TAE (tris, acetate, EDTA; pH 7.5) buffer that was previously used for RAD51-ssDNA filaments, in which DMC1-ssDNA filaments were partially formed at the canonical ratio of three nucleotides to one protomer (Fig. 3a). Secondly, a TEA (triethanolamine; pH 7.5) + KCl buffer based on previous DMC1 studies[36]–[38], in which DMC1-ssDNA filament formation was more complete at the canonical ratio (Fig. 3b). […] This was noticeable using Ex14 in equimolar amounts (11 μM), and became substantial at a 5-fold stoichiometric excess (55 μM) (Fig. 3b). As the KD of the DMC1-Ex14 interaction is approximately 30 μM (Fig. 2a), the requirement for a stoichiometric excess is likely due to binding being favoured at Ex14 concentrations above the KD.
# (§2) To form nucleoprotein filaments, DMC1 and RAD51 was incubated with fluorescent 100-base ssDNA (5’-FAM- […]-3’) at the concentrations indicated in the figures for 30 minutes at 4 °C in reaction buffer. For DMC1, reaction buffer is 25 mM TEA (triethanolamine) pH 7.5, 1 mM ATP, 2 mM MgCl2, 0.1 mg/ml BSA, 2 mM DTT, 200 mM KCl. For RAD51, reaction buffer is 50 mM TEA (triethanolamine), 2 mM ATP, 0.5 mM MgCl2, 2 mM DTT. For assays requiring incomplete nucleoprotein filament assembly, the reaction buffer consisted of 50 mM TAE (tris, acetate, EDTA) pH 7.5, 2 mM ATP, 2 mM MgCl2, 2 mM DTT. In nucleoprotein formation stimulation assays or supershift experiments, BRCA2Ex14 or BRCA2Ex14-AAA were added for a further 30 min at 4 °C. […] Glycerol was added at a final concentration of 3%, and samples were analysed by electrophoresis on a 1% (w/v) (for DMC1) or 0.66% (w/v) (for RAD51) agarose gel in 0.5x TAE pH 8.0 at 20–40 V for ~4 h at 4 °C. DNA was detected by FAM using a Typhoon^TM FLA 9500 (GE Healthcare), with 473 nm laser at excitation wavelength 490 nm and emission wavelength 520 nm, using the LPB filter and a PMT voltage of 500 V. To analyse RAD51 nucleoprotein filaments assembled upon 100-base poly(dT) ssDNA, gels were stained post-run using SYBR^TM Gold Nucleic Acid Gel Stain (Invitrogen) and detected using a Typhoon^TM FLA 9500 (GE Healthcare).
# DMC1-ssDNA filaments [2] = assay: EMSA, protection of DMC1-ssDNA filaments from BRC4-mediated disruption; assay type: biochemical, human; details: TEA pH 7.5 + KCl; Ex14 10-fold stoichiometric excess (110 μM); 10-fold excess of BRC4
# Description: Finally, we tested whether binding of BRCA2 Ex14 protects DMC1-ssDNA nucleoprotein filaments from BRC4-mediated disruption (Fig. 3c). […] Further, whilst the core PhePP interaction site is sufficient to stimulate DMC1-ssDNA nucleoprotein filament formation, surrounding amino-acids that are present within Ex14 (but not Ex14-Tr) are necessary to super-shift filaments and confer protection from BRC4-mediated disruption.
# as §2
# DMC1 ΔN [3] = target: T1, DMC1 ΔN; assay: Amylose pull-down of DMC1 ΔN with MBP-BRCA2 fusions; assay type: binding; details: recombinant co-expression with MBP-BRCA2 fusion
# From the text: For affinity pulldown experiments, MBP-fusions of BRCA2 fragments (Ex14, amino-acids 2387-2420, Ex14-Tr, amino acids 2401-2414, Ex27, amino acids 3270-3315, BRC4, amino acids 1519-1551) were cloned into pMAT11 vectors[54] and co-expressed with DMC1 ΔN, DMC1 ΔN loop mutant (in which DMC1 amino acids 147-GAGGYPG-153 and 178-NVDHDA-183 were replaced by the cognate sequences of RAD51 148-IDRGGGE-154 and 179-GLSGSD-184), RAD51 ΔN, RAD51 ΔN loop mutant (the reverse switch of DMC1 ΔN loop mutant), and RAD51. MBP-fusions and complexes were purified through amylose affinity chromatography.
# DMC1 ΔN [4] = target: T1, DMC1 ΔN; assay: Microscale thermophoresis (MST), BRCA2 peptides and DMC1 ΔN; assay type: binding; details: labelled DMC1 ΔN 150 nM; pH 8.0
# Description: DMC1 ΔN and DMC1 ΔN loop mutant were labelled in 10 mM HEPES pH 8.0, 150 mM NaCl with an amine reactive fluorescent dye (MonolithTM Protein Labelling Kit BLUE-NHS, Nanotemper GmbH). A serial dilution of titrant (peptide) was prepared in 10 mM HEPES pH 8.0, 150 mM NaCl, 0.05 % Tween-20. The concentration of labelled DMC1 ΔN or DMC1 ΔN loop mutant were constant at 150 nM and the concentration of the interacting peptide was titrated in 1:1 dilutions starting from 750 µM. An equal volume (10 µl) of the serial dilution and of the diluted labelled DMC1 were mixed and loaded in glass capillaries (MonolithTM NT.115 MST Premium Coated Capillaries, Nanotemper GmbH). The initial fluorescence and the thermophoretic mobility were measured on a Monolith NT.115 system (NanoTemper Technologies). The excitation power was 45 % and MST power was 60 % at room temperature (~22 °C). Laser on and off times were set at 5 and 30 seconds, respectively. Data analysis was performed with NT Affinity Analysis software.
# As a change in initial fluorescence was detected, SDS denaturation (SD) tests were performed according to the manufacturer’s instructions to determine whether these changes were ligand-induced and whether the data could therefore be used to derive affinity measurements. Briefly, 7 µl of the samples containing the three highest and three lowest concentrations of peptide were mixed with 7 µl of denaturation buffer (4 % SDS, 40 mM DTT). After incubating each for 5 minutes at 95 °C to denature the proteins and subject to brief centrifugation, the samples were loaded onto Premium Coated Capillaries and their initial fluorescence measurements recorded. […] Initial fluorescence readings were used to derive binding affinities.
# RAD51-ssDNA filaments = assay: EMSA, protection of RAD51-ssDNA filaments from BRC4-mediated disruption (random sequence ssDNA); assay type: biochemical; details: 100-nt random ssDNA; 10-fold excess of Ex27
# Description: as §2
# [5] = tested on: DMC1 V179E-ssDNA filaments; assay: EMSA, super-shift of filaments formed using DMC1 V179E; assay type: biochemical, human
# Description: as §2
# DMC1-ssDNA filaments [6] = assay: EMSA, super-shift of DMC1-ssDNA filaments (TEA pH 7.5 + KCl); assay type: biochemical, human; details: 100-nt random ssDNA, 4 °C
# From the text: as §1, §2
# [7] = tested on: RAD51-ssDNA (polydT) filaments; assay: EMSA, protection of RAD51-ssDNA (polydT) filaments from BRC4-mediated disruption; assay type: biochemical; details: 100-nt polydT; 10-fold excess of Ex27
# Description: as §2
# [8] = target: the molecule itself; assay: crystal structure; DMC1 ΔN crystals soaked overnight with 3.5 mM BRCA2 Ex14-Tr peptide; anisotropic resolution limits 3.4-5.8 Å; peptide built with the guide of an AlphaFold2 model
# RAD51;BRCA2 Ex27 = RAD51;BRCA2 Ex27 (Homo sapiens?;Homo sapiens?, UniProt Q06609;P51587 1-339;3270-3315, |); assay: EMSA, BRC4 protection; 10-fold excess Ex27 + BRC4, complete protection; largely protected at 33 µM Ex27; DMC1: 25 mM TEA (triethanolamine) pH 7.5, 200 mM KCl, 1 mM ATP, 2 mM MgCl2, 0.1 mg/ml BSA, 2 mM DTT, or 50 mM TAE pH 7.5, 2 mM ATP, 2 mM MgCl2, 2 mM DTT; RAD51: 50 mM TEA, 2 mM ATP, 0.5 mM MgCl2, 2 mM DTT; all 4 C, agarose gel in 0.5x TAE; details: tags: ;; label: none (SYBR Gold post-stain); single strand
molecule,measurement,setting,value
"Ex14-AAA: Ex14 with alanine mutations F2406A, P2408A, P2409A (ATRNEKMRHLITTGRPTKVAVAAFKTKSHFHRVE; left off: His6, end not stated, cleaved | MBP, end not stated, cleaved)",stimulation of DMC1-ssDNA nucleoprotein filament formation,"DMC1-ssDNA filaments [1]; TAE pH 7.5, 100-nt random ssDNA, 4 °C, canonical ratio of three nucleotides to one protomer, equimolar for Ex14",largely failed to stimulate filament formation
same,stimulation of DMC1-ssDNA filament formation at high concentrations,DMC1-ssDNA filaments [1]; high peptide concentrations,partial stimulation; also recorded: some stimulation of filament formation
same,protection of DMC1-ssDNA filaments from BRC4-mediated disruption,DMC1-ssDNA filaments [2],almost completely lost; also recorded: largely abrogated
same,binding in pull-down,DMC1 ΔN [3],not
same,interaction by MST (in words),DMC1 ΔN [4],largely disrupted; also recorded: not detectable
same,protection of RAD51-ssDNA filaments from BRC4-mediated disruption,RAD51-ssDNA filaments,not
same,super-shift of DMC1 V179E-ssDNA filaments,[5],The residual super-shift was the same
same,super-shift of pre-formed DMC1-ssDNA filaments,DMC1-ssDNA filaments [6],largely failed to stimulate or super-shift; also recorded: largely eliminated
same,protection of RAD51-ssDNA (polydT) filaments from BRC4-mediated disruption,[7],not
B1,stoichiometry N,[8],8
B2,binding result,RAD51;BRCA2 Ex27,binds
